Assay results: patent publication US20130203805A1, “Methods for treating anemia using inhibitors of hypoxia-inducible factor (HIF) hydroxylase” (FIBROGEN, INC., priority 2001, published 2013)

Test system: erythropoietin transcript
Experiment: Erythropoietin transcript in tissues by Murine genome U74AV2 array (Example 7)
Type: in vivo, male Swiss Webster mice
Settings: mice
Procedure: Twenty-five male Swiss Webster mice (35-38 g) were obtained from Simonson, Inc., and treated by oral gavage […] for 2.5 days (5 doses) with a 4 ml/kg volume of either 0.5% carboxymethyl cellulose (CMC; Sigma-Aldrich, St. Louis Mo.) (0 mg/kg/day), compound C at 30 or 100 mg/kg/day […], or blood was collected daily from animals as described above to induce anemia. Blood samples were collected and kidney, liver, brain, lung, heart, and skeletal muscle tissues were harvested and processed as for Example 2, Experiment I (supra).
RNA isolation was carried out using the following protocol. A 50 mg section of each organ was diced, 875 μl of RLT buffer (RNEASY kit; Qiagen Inc., Valencia Calif.) was added, and the pieces were homogenized for about 20 seconds using a rotor-stator POLYTRON homogenizer (Kinernatica, Inc., Cincinnati Ohio). The homogenate was micro-centrifuged for 3 minutes to pellet insoluble material, the supernatant was transferred to a new tube and RNA was isolated using an RNEASY kit (Qiagen) according to the manufacturer's instructions. The RNA was eluted into 80 μL of water and quantitated with RIBOGREEN reagent (Molecular Probes, Eugene Oreg.). Genomic DNA was then removed from the RNA using a DNA-FREE kit (Ambion Inc, Austin Tex.) according to the manufacturer's instructions. The absorbance at 260 and 280 nm was measured to determine RNA purity and concentration.
RNA was precipitated in 0.3 M sodium acetate (pH 5.2), 50 ng/ml glycogen, and 2.5 volumes of ethanol for one hour at −20° C. Samples were centrifuged and pellets were washed with cold 80% ethanol, dried, and resuspend in water. Double stranded cDNA was synthesized using a T7-(dT)24 first strand primer (Affymetrix, Inc., Santa. Clara Calif.) and the […] CHOICE system (Invitrogen) according to the manufacturer's instructions. The final cDNA was extracted with an equal volume of 25:24:1 phenol:chloroform:isoamyl alcohol using a PHASE LOCK GEL insert (Brinkman, Inc., Westbury N.Y.). The aqueous phase was collected and cDNA was precipitated using 0.5 volumes of 7.5 M ammonium acetate and 2.5 volumes of ethanol. Alternatively, cDNA was purified using the […] sample cleanup module (Affymetrix) according to the manufacturer's instructions. […]
Hybridization cocktail was prepared by bringing 5 μg probe to 100 μl in 1× hybridization buffer (100 mM MES, 1 M [Na^+], 20 mM EDTA, 0.01% Tween 20), 100 μg/ml herring sperm DNA, 500 μg/ml acetylated BSA, 0.03 nM control oligo B2 (Affymetrix), and 1× […] eukaryotic hybridization control (Affymetrix). […] Arrays were analyzed using a […] scanner (Affymetrix) and Microarray Suite software (Affymetrix). […]

[1] = 30 or 100 mg/kg/day oral gavage for 4 days, FIG. 6

`O=C(O)CNC(=O)c1nc(Cl)c2ccccc2c1O` [Compound C, [(1-chloro-4-hydroxy-isoquinoline-3-carbonyl)-amino]-acetic acid] was tested, and the “erythropoietin transcript, brain” value [1] was “dose-dependent increase”, the “erythropoietin transcript, kidney” value [1] was “dose-dependent increase” and the “erythropoietin transcript, liver” value [1] was “dose-dependent increase”. For the same compound, the “level of expression versus transcription seen with bleed-induced anemia in the same tissue” value (brain, kidney, liver, 30 or 100 mg/kg/day oral gavage) was “equivalent to or exceeded”.
